From patent publication US8980909B2, “HDAC inhibiting derivatives of camptothecin” (Crystal Biopharmaceutical LLC, priority 2011, dated 2015) come the findings set out here.

For data set [1], the system named is NCI/ADR-RES. The data set is described as follows: In vitro anti-proliferation assay (ATPlite), NCI/ADR-RES. It counts as cell-based. The settings on record: for IC50: Homo sapiens, Ovarian Cancer, NCI/ADR-RES, 72 hours. As for the experimental part: (§1) Cell antiproliferation was assayed by PerkinElmer ATPlite™ Luminescence Assay System. The cancer cell lines were plated at 10 k cells per well in Costar 96-well plates with different concentration of compounds for 72 hours with […]. After that, one lyophilized substrate solution vial was reconstituted by adding 5 mL of substrate buffer solution and was agitated gently until the solution is homogeneous. 50 μL of mammalian cell lysis solution was added to 100 μL of cell suspension per well of a microplate and the plate was shaken for five minutes in an orbital shaker at 700 rpm. This procedure will lyses the cells and stabilizes the ATP. Next, 50 μL substrate solution was added to the wells and microplate was shaken for five minutes in an orbital shaker at 700 rpm. Finally, the luminescence was measured by a PerkinElmer TopCount® Microplate Scintillation Counter. Such assays, carried out with a range of doses of test compounds, allow the determination of the cellular anti-antiproliferative IC50 of the compounds of the present invention.
(§2) The cellular antiproliferative assay were conducted side-by-side for Irinotecan (a FDA approved semisynthetic Camptothecin), and CY-700 (the first-in-class dual-functional semisynthetic Camptothecin/HDAC inhibitor), in 53 different cancer cell lines of breast cancer, renal cancer, non-small cell lung cancer, colon cancer, leukemia, multiple myeloma, ovarian cancer, prostate cancer, melanoma, and CNS cancer.
On the technique in general: Cellular ATP, detected with luciferase, serves as a proxy for viable cell number.

Data set [2] concerns SNB-75. The data set is described as follows: In vitro anti-proliferation assay (ATPlite), SNB-75. It counts as cell-based. The settings on record: for IC50: Homo sapiens, CNS Cancer, SNB-75, 72 hours. The method, then:
as §1, §2

For data set [3], the system named is RXF 393. The data set is described as follows: In vitro anti-proliferation assay (ATPlite), RXF 393. It counts as cell-based. The settings on record: for IC50: Homo sapiens, Renal Cancer, RXF 393, 72 hours. As for the experimental part:
as §1, §2

Data set [4] relates to MCF7. The data set is described as follows: In vitro anti-proliferation assay (ATPlite), MCF7. It counts as cell-based. Particulars: for IC50: Homo sapiens, Breast Cancer, MCF7, 72 hours. As for the experimental part: as §1, §2
For data set [5], the system named is NCI-H226. The data set is described as follows: In vitro anti-proliferation assay (ATPlite), NCI-H226. It counts as cell-based. The settings on record: for IC50: Homo sapiens, NSCLC, NCI-H226, 72 hours. As for the experimental part: as §1, §2
Data set [6] relates to T-47D. The data set is described as follows: In vitro anti-proliferation assay (ATPlite), T-47D. It counts as cell-based. The settings on record: for IC50: Homo sapiens, T47D, Breast Cancer, T-47D, 72 hours. As for the experimental part: as §1, §2
Data set [7] relates to BT-549. The data set is described as follows: In vitro anti-proliferation assay (ATPlite), BT-549. It counts as cell-based. Particulars: for IC50: Homo sapiens, Breast Cancer, BT-549, 72 hours. As for the experimental part: as §1, §2
Data set [8] addresses HDAC-1 (Homo sapiens, UniProt Q13547). The data set is described as follows: Inhibition of histone deacetylase enzymatic activity (Fluor-de-Lys), HDAC-1. The settings on record: HDAC subtype HDAC-1. It counts as biochemical. The method, then:
The following assay protocol was used to assay the compounds of the invention against the HDAC enzymes (HDAC-1, 2, 3, 4, 5, 6, 7, 8, 9, 10, and 11.). […] The enzyme stock solution was 4 μg/mL in buffer. The compounds were pre-incubated (2 μl in DMSO diluted to […] in buffer for transfer to assay plate) with enzyme (20 μl of 4 μg/ml) for 10 minutes at room temperature (35 μl pre-incubation volume). The mixture was pre-incubated for 5 minutes at room temperature. The reaction was started by bringing the temperature to 37° C. and adding 15 μl substrate. Total reaction volume was 50 μl. […] Such assays, carried out with a range of doses of test compounds, allowed the determination of an approximate IC50 value.

For data set [9], the system named is SF-539. The data set is described as follows: In vitro anti-proliferation assay (ATPlite), SF-539. It counts as cell-based. Particulars: for IC50: Homo sapiens, CNS Cancer, SF-539, 72 hours. As for the experimental part:
as §1, §2

The test system of data set [10] is CAKI-1. The data set is described as follows: In vitro anti-proliferation assay (ATPlite), CAKI-1. It counts as cell-based. The settings on record: for IC50: Homo sapiens, Renal Cancer, CAKI-1, 72 hours. As for the experimental part: as §1, §2
In data set [11] the test system is OVCAR-8. The data set is described as follows: In vitro anti-proliferation assay (ATPlite), OVCAR-8. It counts as cell-based. The settings on record: for IC50: Homo sapiens, Ovarian Cancer, OVCAR-8, 72 hours. The method, then:
as §1, §2

Data set [12] has as its system LOX IMVI. The data set is described as follows: In vitro anti-proliferation assay (ATPlite), LOX IMVI. It counts as cell-based. Particulars: for IC50: Homo sapiens, Melanoma, LOX IMVI, 72 hours. As for the experimental part: as §1, §2
Data set [13] relates to SNB-19. The data set is described as follows: In vitro anti-proliferation assay (ATPlite), SNB-19. It counts as cell-based. The settings on record: for IC50: Homo sapiens, CNS Cancer, SNB-19, 72 hours. The method, then:
as §1, §2

The test system of data set [14] is SF-268. The data set is described as follows: In vitro anti-proliferation assay (ATPlite), SF-268. It counts as cell-based. Particulars: for IC50: Homo sapiens, CNS Cancer, SF-268, 72 hours. The method, then:
as §1, §2

Data set [15] deals with U251. The data set is described as follows: In vitro anti-proliferation assay (ATPlite), U251. It counts as cell-based. The settings on record: for IC50: Homo sapiens, U-251, CNS Cancer, U251, 72 hours. The method, then: as §1, §2
Data set [16] has as its system SK-MEL-5. The data set is described as follows: In vitro anti-proliferation assay (ATPlite), SK-MEL-5. Particulars: for IC50: Homo sapiens, Melanoma, SK-MEL-5, 72 hours. It counts as cell-based. As for the experimental part: as §1, §2
Data set [17] relates to CCRF-CEM. The data set is described as follows: In vitro anti-proliferation assay (ATPlite), CCRF-CEM. It counts as cell-based. Particulars: for IC50: Homo sapiens, Leukemia, CCRF-CEM, 72 hours. As for the experimental part: as §1, §2
Data set [18] can be described thus: In vitro activities (comparison in words, test not specified).
Data set [19] is described as follows: Solubility (comparison in words). It counts as physicochemical.
Data set [20] has as its system 53 different cancer cell lines. The data set is described as follows: In vitro anti-proliferation assay (ATPlite), panel of 53 cancer cell lines. It counts as cell-based. The settings on record: among 53 cancer cell lines, side-by-side with Irinotecan. The method, then: as §1, with “invention. […]” for “invention.”

HDAC-1, sequence (Q13547 whole entry): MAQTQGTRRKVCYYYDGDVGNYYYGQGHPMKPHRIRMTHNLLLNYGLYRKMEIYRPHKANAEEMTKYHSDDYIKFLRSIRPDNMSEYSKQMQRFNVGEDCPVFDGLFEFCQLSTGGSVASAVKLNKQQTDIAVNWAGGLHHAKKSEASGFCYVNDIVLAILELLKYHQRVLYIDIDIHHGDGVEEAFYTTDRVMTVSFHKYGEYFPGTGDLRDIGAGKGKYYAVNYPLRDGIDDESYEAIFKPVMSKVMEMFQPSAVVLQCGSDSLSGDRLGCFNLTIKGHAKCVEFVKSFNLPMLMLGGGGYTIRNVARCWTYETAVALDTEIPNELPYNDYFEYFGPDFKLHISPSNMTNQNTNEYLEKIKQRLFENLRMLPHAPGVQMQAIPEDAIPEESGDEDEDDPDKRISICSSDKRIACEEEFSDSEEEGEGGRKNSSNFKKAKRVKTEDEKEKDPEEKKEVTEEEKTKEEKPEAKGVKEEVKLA

In general, IC50 refers to the point on the concentration scale where inhibition reaches its midpoint. Low values mean inhibition by little substance, high ones a need for much substance. On to `CCc1c2c(nc3ccc(OC(=O)N4CCC(N5CCCCC5)CC4)cc13)-c1cc3c(c(=O)n1C2)COC(=O)[C@]3(O)CC` [Irinotecan, reference compound], for which the IC50 in data set [1] is 42.2 µM; in [2] it was 15.9 µM; in [3] it was 33.6 µM; in data set [4], 6.1 µM; in data set [5], 8.5 µM; in data set [6] it was 24.4 µM. The IC50 in [7] amounted to 18.5 µM; in [9] it was 5000 nM; in data set [10], 10.1 µM; in [11], 17.2 µM; in [12] it was 3500 nM; in [13], 24.1 µM. Further, the IC50 in [14] was found to be 3900 nM; in [15], 4100 nM; in data set [16], 11.4 µM; in data set [17], 3500 nM. Moreover, in data set [8] (unit not given), the “HDAC-1 IC50 (result in words)” value is reported as “No activity”.
In the case of `CC[C@@]1(O)C(=O)OCc2c1cc1n(c2=O)Cc2cc3c(CN(C)C)c(OC(=O)N4CCN(c5ncc(C(=O)NO)cn5)CC4)ccc3nc2-1` [CY-705], in data set [18], the “in vitro activities as compared to CY-700” value is “comparable in vitro activities”. Also, the “solubility as compared to CY-700” value in data set [19] was “significantly better solubility”.
In the case of `CCc1c2c(nc3ccc(OCCCCCCC(=O)NO)cc13)-c1cc3c(c(=O)n1C2)COC(=O)[C@]3(O)CC` [CY-700], the IC50 in data set [1] was 5.1 µM; in [2], 2.3 µM; in data set [3] it was 2.3 µM; in data set [4] it was 0.5 µM; in data set [5], 1.2 µM; in data set [6], 2.1 µM. Also, the IC50 in data set [7] turned out to be 2.6 µM; in [8] (Fluor-de-Lys substrate, approximate IC50), 19 nM; in [9], 600 nM; in data set [10], 0.7 µM; in [11] it was 2.7 µM; in data set [12], 700 nM. Besides, the 50% inhibitory concentration (IC50) in data set [13] was 1.1 µM; in data set [14] it was 500 nM; in data set [15], 700 nM; in [16], 1.3 µM; in data set [17], 400 nM. Moreover, the Ratio in [1] (Irinotecan IC50 / CY-700 IC50, NCI/ADR-RES) was 8.2; in [2] (Irinotecan IC50 / CY-700 IC50, SNB-75), 6.9; in [3] (Irinotecan IC50 / CY-700 IC50, RXF 393), 14.7; in data set [4] (Irinotecan IC50 / CY-700 IC50, MCF7), 12.1; in data set [5] (Irinotecan IC50 / CY-700 IC50, NCI-H226), 7.2; in data set [6] (Irinotecan IC50 / CY-700 IC50, T-47D), 11.7. Further, the Ratio in data set [7] (Irinotecan IC50 / CY-700 IC50, BT-549) is recorded as 7.0; in [9] (Irinotecan IC50 / CY-700 IC50, SF-539), 8.9; in [10] (Irinotecan IC50 / CY-700 IC50, CAKI-1) it was 15.3; in data set [11] (Irinotecan IC50 / CY-700 IC50, OVCAR-8), 6.4; in data set [12] (Irinotecan IC50 / CY-700 IC50, LOX IMVI), 5.2; in data set [13] (Irinotecan IC50 / CY-700 IC50, SNB-19), 22.0. Also, the Ratio was determined as 7.4 in data set [14] (Irinotecan IC50 / CY-700 IC50, SF-268); 5.5 in data set [15] (Irinotecan IC50 / CY-700 IC50, U251); 8.6 in data set [16] (Irinotecan IC50 / CY-700 IC50, SK-MEL-5); 9.7 in data set [17] (Irinotecan IC50 / CY-700 IC50, CCRF-CEM). For the same compound, the “number of cancer cell lines with better in vitro potency than Irinotecan” value in [20] came out at 47.
